What was measured:
[1] = Adverse events monitoring by clinical evaluation and laboratory tests after single dose
plasma metabolites = assay: Untargeted plasma metabolomic profile pre-dose (T0) vs post-dose (Tmax), UPLC-QToF; format: in vivo, human; settings: healthy volunteers, single dose 500 mg
Experimental: Samples were collected at two times: (i) baseline samples (time 0 h), termed the pre-dose group, and (ii) samples at maximum drug concentration (Cmax), termed the post-dose group. Samples were randomized, and 25 μL of each was collected to form a pooled sample for quality control (QC). An aliquot of plasma (200 μL) was extracted by adding cold methanol (400 μL) for protein precipitation. The samples were then vortexed for 30 s and centrifuged at 12,879× g for 10 min at 4 °C. Finally, the supernatant (400 μL) was collected and dried over a stream of nitrogen gas (N2). Samples were resuspended with 200 µL of acetonitrile (ACN)/water (H2O) (1:1 v/v). Sample extraction and analysis were randomized to reduce instrumental and biological bias. QC samples were analyzed every 10 samples to check for variations in extraction and system stability.
The analysis was adapted and performed on an ACQUITY® FTN H Class (Waters, Newcastle, UK) liquid chromatography (UPLC) coupled to a XEVO-G2XS (QToF) quadrupole time-of-flight mass spectrometer (UPLC-QToF) (Waters, Manchester, UK) equipped with an electrospray ionization (ESI) source operated in the positive and negative ionization mode, separately. An ACQUITY UPLC ® CSH C18 column (2.1 mm × 100 mm × 1.7 µm, Waters, Newcastle, UK) was employed as a stationary phase. […]

[2] = 37 healthy volunteers, single dose 500 mg
[3] = Adverse event: Alanine Aminotransferase Increased
[4] = Adverse event: Alkaline Phosphatase Increased
[5] = Adverse event: Altered Erythrogram
[6] = Adverse event: Altered Leukogram
[7] = Adverse event: Decreased Platelet Count
[8] = Adverse event: Fastting Glucose Increased
[9] = Adverse event: Increased Total Bilirubin and Fractions
[10] = Adverse event: Total Cholesterol Increased

Structure (SMILES): CCc1cccc2c3c([nH]c12)C(CC)(CC(=O)O)OCC3 (centres unmarked) [Etodolac]
- adverse events: intensity (all events) [1, 2]: mild
- adverse events: predictability (all events) [1, 2]: not expected
- adverse events recorded (total) ([1]; 37 healthy volunteers, single dose 500 mg, results outside reference values): 19
- Intensity (Mild / Moderate / Severe / Lethal) [1, 3]: Mild
- Predictability (Expected / Not Expected) [1, 3]: Not Expected
- Events count ([1]; Adverse event: Alanine Aminotransferase Increased, 37 healthy volunteers, single dose 500 mg): 3
- Intensity (Mild / Moderate / Severe / Lethal) [1, 4]: Mild
- Predictability (Expected / Not Expected) [1, 4]: Not Expected
- Events count ([1]; Adverse event: Alkaline Phosphatase Increased, 37 healthy volunteers, single dose 500 mg): 1
- Intensity (Mild / Moderate / Severe / Lethal) [1, 5]: Mild
- Predictability (Expected / Not Expected) [1, 5]: Not Expected
- Events count ([1]; Adverse event: Altered Erythrogram, 37 healthy volunteers, single dose 500 mg): 3
- Intensity (Mild / Moderate / Severe / Lethal) [1, 6]: Mild
- Predictability (Expected / Not Expected) [1, 6]: Not Expected
- Events count ([1]; Adverse event: Altered Leukogram, 37 healthy volunteers, single dose 500 mg): 3
- Intensity (Mild / Moderate / Severe / Lethal) [1, 7]: Mild
- Predictability (Expected / Not Expected) [1, 7]: Not Expected
- Events count ([1]; Adverse event: Decreased Platelet Count, 37 healthy volunteers, single dose 500 mg): 1
- Intensity (Mild / Moderate / Severe / Lethal) [1, 8]: Mild
- Predictability (Expected / Not Expected) [1, 8]: Not Expected
- Events count ([1]; Adverse event: Fastting Glucose Increased, 37 healthy volunteers, single dose 500 mg): 3
- Intensity (Mild / Moderate / Severe / Lethal) [1, 9]: Mild
- Predictability (Expected / Not Expected) [1, 9]: Not Expected
- Events count ([1]; Adverse event: Increased Total Bilirubin and Fractions, 37 healthy volunteers, single dose 500 mg): 1
- Intensity (Mild / Moderate / Severe / Lethal) ([1]; Adverse event: Leukocyturia): Mild
- Predictability (Expected / Not Expected) ([1]; Adverse event: Leukocyturia): Not Expected
- Events count ([1]; Adverse event: Leukocyturia, 37 healthy volunteers, single dose 500 mg): 1
- Intensity (Mild / Moderate / Severe / Lethal) [1, 10]: Mild
- Predictability (Expected / Not Expected) [1, 10]: Not Expected
- Events count ([1]; Adverse event: Total Cholesterol Increased, 37 healthy volunteers, single dose 500 mg): 3
- 6-ketoprostaglandin E1 relative abundance at Tmax compared to T0 (plasma metabolites): increases twist time in relative abundance
- 15-epi-lipoxin A4 relative abundance at Tmax compared to T0 (plasma metabolites): increases in relative abundance
